# Assays:
# [1] = test system: J774 cells; assay: BODIPY-cholesterol efflux from J774 macrophages to apoA1; type: cell-based
# Experimental: Cholesterol Efflux. Plated J774 cells (RRID:CVCL 0358) purchased from ATCC and used without further validation were incubated in serum-free medium containing 0.5 μM BODIPY-cholesterol (Cayman) for 24 hours. Medium was replaced with fresh serum-free medium containing test compound for 24 hours. For experiments with probucol (Sigma), it was added at 20 μM for the final 2 hours with test compound. Then, fresh serum-free medium containing 20 μg/mL purified recombinant apolipoprotein A1 (Sigma) was added for 6 hours. Acceptor-containing medium was transferred to a new plate, while cells were lysed with RIPA buffer. Fluorescence (Ex480/Em530) was measured in both components, with data reported as % efflux=(medium fluorescence)/(medium fluorescence+lysate fluorescence) normalized to background efflux (% efflux in DMSO-treated cells without exogenous apoA1).
# [2] = test system: J774 cells; assay: Lipopolysaccharide-stimulated J774 cells, TNFα and NOS2; type: cell-based; settings: co-treatment
# Description: qRT-PCR. For cell samples, treated cells were lysed with RLT plus lysis buffer (Qiagen). RNA was isolated with Qiagen RNEASY® Plus columns per manufacturer instructions, then reverse-transcribed to cDNA using […]® III Reverse Transcriptase (200 U/μL, Invitrogen) per supplier protocol. qPCR experiments were either performed with TAQMAN® gene expression master mix (Invitrogen) on a StepOne™ qPCR instrument or with […]® SYBR® Green SuperMix (Quanta Biosciences) on CFX Connect™ Real-Time PCR Detection System (BioRad), with fold-change quantified by ΔΔCt. For animal samples, 100 mg tissue was homogenized in 1 mL acid-guanidinium-phenol based reagent sold under the tradename TRIZOL® (Ambion), mixed vigorously in chloroform, and separated by centrifugation. Aqueous layer containing RNA was added to Qiagen RNEASY® Plus column; remaining stops were as described above for cell lysates.
# [3] = target: T1, LXRα (Homo sapiens, UniProt Q13133); assay: LXRα NHR screen (DiscoverX NHR-Scan, β-gal reporter); type: cell-based
# T1 sequence (Q13133 1-447): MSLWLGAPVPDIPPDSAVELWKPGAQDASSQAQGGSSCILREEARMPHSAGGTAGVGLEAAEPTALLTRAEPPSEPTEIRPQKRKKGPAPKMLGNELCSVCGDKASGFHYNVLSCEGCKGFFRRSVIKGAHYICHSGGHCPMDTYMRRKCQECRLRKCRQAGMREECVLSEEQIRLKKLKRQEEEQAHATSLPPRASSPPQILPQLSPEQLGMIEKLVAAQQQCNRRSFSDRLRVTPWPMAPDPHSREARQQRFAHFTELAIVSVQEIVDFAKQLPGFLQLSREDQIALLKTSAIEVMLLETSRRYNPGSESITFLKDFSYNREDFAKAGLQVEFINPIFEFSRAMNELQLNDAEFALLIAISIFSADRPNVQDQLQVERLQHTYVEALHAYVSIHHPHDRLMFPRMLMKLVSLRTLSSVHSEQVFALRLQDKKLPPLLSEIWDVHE
# Experimental: (§1) Receptor Binding Assays. Nuclear hormone (NHR) assays were performed by DiscoverX (Fremont, CA) on their NHR-Scan platform of cell-based protein-protein interaction assays. This platform uses a […] reporter that activates upon interaction of full-length receptor protein with steroid coactivator receptor peptides. In agonist mode, activity of CL2-57 at 10 μM was compared to maximal activity of published positive control agonists; in antagonist mode, reduction in activity with 10 μM CL2-57 from that observed at […] of published agonists was quantified.
# [4] = target: T2, PPARβ/δ (Homo sapiens, UniProt Q03181); assay: PPARβ/δ NHR screen, antagonist mode; settings: cell-based β-gal reporter assay, 10 μM
# T2 sequence (Q03181 1-441): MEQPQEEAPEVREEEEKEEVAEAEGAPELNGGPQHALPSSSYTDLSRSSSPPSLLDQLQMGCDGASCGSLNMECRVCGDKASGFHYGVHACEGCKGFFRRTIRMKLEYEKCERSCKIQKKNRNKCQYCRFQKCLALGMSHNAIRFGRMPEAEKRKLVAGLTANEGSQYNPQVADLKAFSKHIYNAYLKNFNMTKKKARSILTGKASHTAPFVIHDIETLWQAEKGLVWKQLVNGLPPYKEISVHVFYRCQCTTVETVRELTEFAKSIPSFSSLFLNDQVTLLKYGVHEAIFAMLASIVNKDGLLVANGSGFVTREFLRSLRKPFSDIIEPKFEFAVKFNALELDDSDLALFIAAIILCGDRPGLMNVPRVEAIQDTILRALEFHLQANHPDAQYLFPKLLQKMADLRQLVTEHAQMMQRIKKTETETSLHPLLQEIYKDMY
# Experimental: as §1
# [5] = target: T3, PPARγ (Homo sapiens, UniProt P37231); assay: PPARγ NHR screen, antagonist mode; settings: cell-based β-gal reporter assay, 10 μM
# T3 sequence (P37231 1-505): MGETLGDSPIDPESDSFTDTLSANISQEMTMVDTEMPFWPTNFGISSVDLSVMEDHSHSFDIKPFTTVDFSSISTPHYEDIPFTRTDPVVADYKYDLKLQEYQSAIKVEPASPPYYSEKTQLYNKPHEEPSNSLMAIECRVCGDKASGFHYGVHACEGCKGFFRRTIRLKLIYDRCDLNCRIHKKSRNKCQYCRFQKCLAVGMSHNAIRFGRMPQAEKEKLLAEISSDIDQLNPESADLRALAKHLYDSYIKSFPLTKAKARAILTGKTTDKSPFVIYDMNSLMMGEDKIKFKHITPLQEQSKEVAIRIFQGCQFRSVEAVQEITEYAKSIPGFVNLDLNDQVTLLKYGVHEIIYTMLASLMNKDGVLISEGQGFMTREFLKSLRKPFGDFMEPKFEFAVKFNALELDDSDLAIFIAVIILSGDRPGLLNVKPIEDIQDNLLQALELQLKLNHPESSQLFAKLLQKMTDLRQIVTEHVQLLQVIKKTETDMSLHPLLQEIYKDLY
# Experimental: as §1
# [6] = test system: J774 cells; assay: siRNA knockdown of LXRα/LXRβ in J774 cells; type: cell-based
# Experimental: siRNA Knockdown. J774 cells were plated in 24-well plates in serum-containing medium, to which an additional 100 μL of medium containing 10 pmol of siRNA and 3 μL of LIPOFECTAMINE® RNAIMAX® transfection reagent (Thermo Fisher Scientific) were added. After 24 hours, serum-free medium containing 10 μM C12-57 or vehicle control was added to each well for 24 hours. Cells were lysed and analyzed per qPCR and immunoblot procedures above. siRNAs used: Thermo Fisher 188584 (Nr1h3 silencer), 186947 (Nr1h2 silencer), and AM4611 (Silencer Negative Control siRNA #1).
# [7] = test system: CD1 mice; assay: CD1 mice, three daily p.o. treatments, LXR agonist adverse effects; type: in vivo, mouse; settings: 10 mg/kg p.o., three days
# Description: Neutrophil Counts. […] After final dose, blood samples were run on an Advia 120 analyzer (Bayer) for neutrophil counts.
compound,measurement,setting,value
"CCOC(=O)c1cccc(NC(=O)c2sc(Cl)cc2S(=O)(=O)N(C)c2ccc(OCC)c(OCC)c2)c1 [CL2-57, ethyl 3-(5-chloro-3-(N-(3,4-diethoxyphenyl)-N-methylsulfamoyl)thiophene-2-carboxamido) benzoate]","Cholesterol Efflux - J774, activity of CL2-57 (10 μM) as % of T0901317 (1 μM)",[1]; 10 μM,183%
same,Cholesterol efflux from macrophages to apoA1,[1]; fluorescent BODIPY-tagged cholesterol,dose-dependently increased
same,Increased cholesterol efflux with ABCA1 inhibitor probucol,[1]; probucol 20 μM for the final 2 hours,blocked
same,LPS-induced increase of NOS2,[2],dose-dependently reversed
same,LPS-induced increase of TNFα,[2],dose-dependently reversed
same,"LXRα NHR screen, activity of CL2-57 (10 μM) as % of T0901317 (1 μM)",[3],34%
same,Functional mode at PPARβ/δ,[4],weak antagonist
same,Functional mode at PPARγ,[5],weak antagonist
same,ABCA1 induction under LXR siRNA knockdown,"[6]; 10 μM, J774",mediated by LXRβ
same,Induction of Abcg1 under LXR siRNA knockdown,[6]; J774,reduced by LXRβ knockdown
same,Induction of Slc2a1 (GLUT1) under LXR siRNA knockdown,[6]; J774,reduced by LXRβ knockdown
same,Irs1 increases under LXR siRNA knockdown,[6]; J774,not affected by loss of either LXR isoform
same,LXR target gene Apoe,[6]; J774 cells,not significantly affected
same,Circulating neutrophil levels,[7],did not affect
same,Plasma TG,[7],did not affect
same,Plasma cholesterol,[7],did not affect

# From patent US20240199572A1, “COMPOUNDS, COMPOSITIONS, AND METHODS FOR TREATING TYPE 2 DIABETES AND DEMENTIA” (THE BOARD OF TRUSTEES OF THE UNIVERSITY OF ILLINOIS, priority 2021, published 2024)
